Key:
[1] = S9 stability assay, human liver S9 fraction; format: in vitro ADME; details: for CLint: known MEK compounds; for microsomal CLint at 1 μM / half-life at 1 μM: pH 7.4, Table 1, human liver S9 fraction; for microsomal CLint at 1 μM: read-out: CLint; for half-life at 1 μM: read-out: Liver S9 t1/2
Protocol: Compounds were assessed for metabolic stability in human skin by assessing their rate of disappearance from human S9 skin fraction. Similarly, compounds were assessed for metabolic stability in human liver by assessing their rate of disappearance from human S9 liver fraction. The protocol below can be used to assess the difference between skin and hepatic metabolism.
The assay was carried out in 96-well microtiter plates at 37° C. Reaction mixtures (25 μL) contained a final concentration of 1 μM test compound, 2 mg/mL liver or skin S9 protein, and 1 mM NADPH in buffer (100 mM potassium phosphate, pH 7.4 buffer with 1 mM EDTA, 3 mM MgCl2). At each of the time points (0, 15, 30, and 60 minutes), 150 μL of quench solution (100% acetonitrile with 0.1% formic acid) with internal standard was transferred to each well. Besides the zero minute controls, mixtures containing the same components except the NADPH were also prepared as the negative control. Verapamil or testosterone was included as a positive control to verify assay performance. Plates were sealed and centrifuged at 4° C. for 15 minutes at 4000 rpm. The supernatant was transferred to fresh plates for LC/MS/MS analysis.
All samples were analyzed on LC/MS/MS using an AB Sciex API 4000 instrument, coupled to a Shimadzu LC-20AD LC Pump system. Analytical samples were separated using a Waters Atlantis T3 dC18 reverse phase HPLC column (20 mm×2.1 mm) at a flow rate of 0.5 mL/min. The mobile phase consisted of 0.1% formic acid in water (solvent A) and 0.1% formic acid in 100% acetonitrile (solvent B).
The extent of metabolism was calculated as the disappearance of the test compound, compared to the 0-min control reaction incubations. Initial rates were calculated for the compound concentration and used to determine t1/2 values and subsequently, the intrinsic clearance, CLint=(0.693) (1/t1/2 (min)) (mL incubation/mg of S9 protein).

[2] = test system: P-gp (human MDR1); test: in vitro; details: dog; for Papp A→B at 1 h, 5 μM / Papp B→A at 1 h, 5 μM: MDCK-MDR1, Papp
Protocol: (§1) MDCK-MDR1 is a stable-transfected cell line originating from MDCK cells, with over-expression of human MDR1 gene. The cell line is widely used for the identification and characterization of P-gp substrates and inhibitors.
(§2) MDCK-MDR1 cells were plated into 96-well Millipore Millicell-96 plates at 7,500 cells/75 μL/well and incubated for three days at 37° C. with 5% CO2. Cells were washed with Hank's Balanced Salt Solution (HBSS) with 5 mM HEPES for 30 minutes before starting the experiment. Test compound solutions were prepared by diluting DMSO stock into HBSS buffer, resulting in a final DMSO concentration of 0.1%. Prior to the experiment, cell monolayer integrity was verified by […] electrical resistance (TEER). Transport experiment was initiated by adding test compounds to the apical (75 μL) or basal (250 μL) side. Transport plates were incubated at 37° C. in a humidified incubator with 5% CO2. Samples were taken from the donor and acceptor compartments after one hour and analyzed by liquid chromatography with tandem mass spectrometry (LC/MS/MS).
(§3) Digoxin was used as reference control.
(§4) Apparent permeability (Papp) values were calculated using the following equation: Papp=(dQ/dt)/A/Co; where dQ/dt is the initial rate of amount of test compound transported across cell monolayer, A is the surface area of the filter membrane, and Co is the initial concentration of the test compound, calculated for each direction using a 4-point calibration curve by LC/MS/MS.
(§5) Net flux ratio between the two directional transports was calculated by the following equation: Ratio=Papp, B-A/Papp, A-B; where Papp, B-A and Papp, A-B represent the apparent permeability of test compound from the basal-to-apical and apical-to-basal side of the cellular monolayer, respectively.
(§6) Recovery was calculated based on the compound concentration at the end of the experiment, compared to that at the beginning of the experiment, adjusted for volumes.
(§7) A net flux ratio greater than two was considered a positive result for substrate determination. […] If the addition of a known P-gp inhibitor to the experiment reduces the net flux ratio by a significant amount (more than 50% reduction or reduces the ratio to close to unity), it is likely that the compound tested is a P-gp substrate.

[3] = test system: MDCK-MDR1 cells; test: in vitro; details: dog, MDCK-MDR1, 1 h, 5 μM
Protocol: as §1, §2, §3, §4, §5, §6, §7

[4] = target: T1, hERG channel protein (Homo sapiens, UniProt Q12809); test: hERG screening assay (Predictor hERG FP); format: binding; details: fluorescence polarization tracer displacement
T1 construct: purchased ThermoFisher PV5365
T1 sequence (Q12809 whole entry): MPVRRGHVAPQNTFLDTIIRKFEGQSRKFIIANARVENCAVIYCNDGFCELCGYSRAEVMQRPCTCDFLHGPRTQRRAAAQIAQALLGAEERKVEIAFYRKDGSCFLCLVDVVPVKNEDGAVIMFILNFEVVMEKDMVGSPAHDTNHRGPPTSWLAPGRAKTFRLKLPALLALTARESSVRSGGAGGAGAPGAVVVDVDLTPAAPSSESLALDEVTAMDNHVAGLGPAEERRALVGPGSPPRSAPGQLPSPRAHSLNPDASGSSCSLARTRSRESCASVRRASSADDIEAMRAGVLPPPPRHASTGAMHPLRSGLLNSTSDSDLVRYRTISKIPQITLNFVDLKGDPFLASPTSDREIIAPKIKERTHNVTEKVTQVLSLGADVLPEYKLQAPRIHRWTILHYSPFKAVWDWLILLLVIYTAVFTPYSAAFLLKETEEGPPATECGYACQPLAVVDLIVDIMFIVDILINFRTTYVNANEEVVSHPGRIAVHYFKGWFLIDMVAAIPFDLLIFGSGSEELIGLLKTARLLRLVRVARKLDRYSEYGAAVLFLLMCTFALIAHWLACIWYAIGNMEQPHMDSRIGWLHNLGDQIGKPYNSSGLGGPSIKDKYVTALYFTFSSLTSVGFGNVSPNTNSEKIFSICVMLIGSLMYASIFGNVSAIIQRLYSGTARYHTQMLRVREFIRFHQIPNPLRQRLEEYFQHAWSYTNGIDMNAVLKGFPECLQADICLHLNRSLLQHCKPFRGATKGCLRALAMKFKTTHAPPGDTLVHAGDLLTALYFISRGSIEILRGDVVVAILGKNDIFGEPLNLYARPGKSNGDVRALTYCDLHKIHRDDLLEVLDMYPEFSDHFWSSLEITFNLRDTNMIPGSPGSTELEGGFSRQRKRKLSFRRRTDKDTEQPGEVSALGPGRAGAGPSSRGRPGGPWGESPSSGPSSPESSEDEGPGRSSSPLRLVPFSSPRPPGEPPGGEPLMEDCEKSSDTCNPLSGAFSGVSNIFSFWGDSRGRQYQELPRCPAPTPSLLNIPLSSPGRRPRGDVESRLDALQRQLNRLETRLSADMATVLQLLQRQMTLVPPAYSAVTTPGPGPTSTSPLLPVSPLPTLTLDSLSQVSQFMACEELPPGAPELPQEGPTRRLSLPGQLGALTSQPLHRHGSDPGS
Protocol: hERG screening was conducted using a procedure similar to the procedure described by Piper et al. (Piper, D. R. et al., Assay Drug Dev. Technol. 2008, 6(2):213-223). The Predictor hERG FP assay (available from ThermoFisher, cat. no. PV5365) is a homogenous, fluorescence polarization biochemical-based format utilizing a membrane fraction containing hERG channel protein (Predictor hERG Membrane) and a high affinity, red-fluorescent hERG channel ligand (Predictor hERG Tracer Red). When the Predictor hERG Tracer ligand is bound to the hERG channel it produces high fluorescence polarization values. Compounds that bind to the hERG channel protein (competitors) displace the Predictor hERG Tracer Red resulting in decreased fluorescence polarization values.
Test compounds were solubilized in DMSO at 100× (or greater) of the desired starting concentration. Screening was conducted with a final concentration of 1% DMSO. For 10-point titrations, 3-fold serial dilutions were performed from the starting concentrations. The assay buffer used was 25 mM HEPES (pH 7.5), 15 mM KCl, 1 mM MgCl2, and 0.05% Pluronic F-127 (available from Sigma-Aldrich).
Predictor hERG membranes were stored as a 2× stock at −80° C. Each membrane lot was titrated to identify the concentration of membranes required to obtain ˜70% bound tracer. Before setting up the assay the membranes were thawed in a 37° C. water bath and stored at room temperature. To avoid light scatter caused by large membrane particulates the membranes were sonicated until a homogeneous solution free of particulates is obtained. […]
384 well untreated low-volume polystyrene microplates (Corning Cat. #4511) were used for the assay. […] The assay plate was read on a fluorescence plate reader (Tecan Safire^2) and the data was analyzed. […]
Assay blank control wells consisted of Predictor hERG Membranes and Assay Buffer. The blank wells were used for background subtraction of raw parallel and perpendicular fluorescence values prior to the calculation of polarization values. […]

[5] = clinically tested; cited from earlier work

Row | SMILES | CLint [1] [μL/min/mg protein] | microsomal CLint at 1 μM [1] [µL/min/mg] | half-life at 1 μM [1] [h] | efflux ratio at 1 h, 5 μM ([2]; MDCK-MDR1) | Papp A→B at 1 h, 5 μM ([2]; A-B Mean) [×10⁻⁶ cm/s] | Papp A→B at 1 h, 5 μM ([2]; A-B Value) [×10⁻⁶ cm/s] | Papp B→A at 1 h, 5 μM ([2]; B-A Mean) [×10⁻⁶ cm/s] | Papp B→A at 1 h, 5 μM ([2]; B-A Value) [×10⁻⁶ cm/s] | Papp, A-B Value [3] [×10⁻⁶ cm/s] | Papp, B-A Value [3] [×10⁻⁶ cm/s] | Recover Rate [3] [%] | IC50 [4] [µM] | side effects [5]
1 | Cn1c(C(=O)NOCCO)c(Nc2ccc(I)cc2F)c2cnccc21 [Example C8] | 5.27 | 5.27 | 1.1 | 3.4 | 12.8 | 12.7 | 43.5 | 43.2 | 12.9 | 43.7 | 99 | 1.8 | 
2 | O=C(NOC[C@H](O)CO)c1c(Nc2ccc(I)cc2F)sc2ncccc12 [Example C9] | 2.20 | 2.2 | 2.63 |  |  |  |  |  |  |  |  | 7.3 | 
3 | O=C(NOC[C@H](O)CO)c1ccc(F)c(F)c1Nc1ccc(I)cc1F [PD0325901] |  |  |  |  |  |  |  |  |  |  |  |  | neurological side effects associated with ataxia, confusion, and syncope
